Reference: patent publication US11208386B2, “Inhibitors of protein arginine deiminases (PADs) and methods of preparation and use thereof” (University of Massachusetts, priority 2016, dated 2021)

Legend:
Type in all cases: biochemical
PAD4 = target: T1, PAD4 (Homo sapiens, UniProt Q9UM07); experiment: Inactivation kinetics, PAD4; conditions: for kinact/KI: a: single kobs determined, b: from a linear fit; for Fold PAD4 Selectivity: kinact/KI relative to least inhibited isozyme (1.0)
T1 construct: made in house
T1 sequence (Q9UM07 whole entry): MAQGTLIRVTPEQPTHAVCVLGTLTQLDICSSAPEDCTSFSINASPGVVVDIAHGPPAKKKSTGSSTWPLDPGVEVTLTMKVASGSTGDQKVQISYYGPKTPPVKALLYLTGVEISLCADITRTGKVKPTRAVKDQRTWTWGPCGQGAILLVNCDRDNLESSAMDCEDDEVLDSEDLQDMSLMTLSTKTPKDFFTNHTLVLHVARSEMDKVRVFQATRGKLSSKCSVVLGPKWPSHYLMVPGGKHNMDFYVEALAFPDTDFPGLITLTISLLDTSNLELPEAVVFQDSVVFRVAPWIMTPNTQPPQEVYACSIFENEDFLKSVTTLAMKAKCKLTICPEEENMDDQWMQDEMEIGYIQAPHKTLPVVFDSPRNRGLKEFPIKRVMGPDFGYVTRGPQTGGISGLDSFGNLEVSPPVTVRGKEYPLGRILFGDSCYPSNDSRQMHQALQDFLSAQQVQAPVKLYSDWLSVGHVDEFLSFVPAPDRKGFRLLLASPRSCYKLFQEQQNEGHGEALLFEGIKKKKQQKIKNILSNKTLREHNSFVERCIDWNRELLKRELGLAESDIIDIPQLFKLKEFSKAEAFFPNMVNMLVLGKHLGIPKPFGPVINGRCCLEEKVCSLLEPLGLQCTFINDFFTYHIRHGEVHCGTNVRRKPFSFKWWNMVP
Procedure: (§1) Inactivation kinetic parameters were determined by incubating PAD1, 2, or 4 (2.0 μM) or PAD3 (5.0 μM) in a pre-warmed (10 min; 37° C.) inactivation mixture (50 mM HEPES, 10 mM CaCl2, and 2 mM DTT, pH 7.6, with a final volume of 60 μL) containing various concentrations of inhibitor. Aliquots were removed at various time points and added to a pre-warmed (10 min, 37° C.) reaction mixture (50 mM HEPES, 50 mM NaCl, 10 mM CaC2, 2 mM DTT, and 10 mM BAEE or 10 mM BAA in the case of PAD3; pH 7.6). After 15 min, reactions were quenched in liquid nitrogen and citrulline production quantified using the COLDER assay. […] In Vitro Labeling of PADs with “Clickable” Probes BB-F-Yne (5u), BB-Cl-Yne (5v) and BIFYne (5w)

PAD1 = target: T2, PAD1 (Homo sapiens, UniProt Q9ULC6); experiment: Inactivation kinetics, PAD1; conditions: for kinact/KI: a: single kobs determined, b: from a linear fit; for Fold PAD1 Selectivity: kinact/KI relative to least inhibited isozyme (1.0)
T2 construct: made in house
T2 sequence (Q9ULC6 1-663): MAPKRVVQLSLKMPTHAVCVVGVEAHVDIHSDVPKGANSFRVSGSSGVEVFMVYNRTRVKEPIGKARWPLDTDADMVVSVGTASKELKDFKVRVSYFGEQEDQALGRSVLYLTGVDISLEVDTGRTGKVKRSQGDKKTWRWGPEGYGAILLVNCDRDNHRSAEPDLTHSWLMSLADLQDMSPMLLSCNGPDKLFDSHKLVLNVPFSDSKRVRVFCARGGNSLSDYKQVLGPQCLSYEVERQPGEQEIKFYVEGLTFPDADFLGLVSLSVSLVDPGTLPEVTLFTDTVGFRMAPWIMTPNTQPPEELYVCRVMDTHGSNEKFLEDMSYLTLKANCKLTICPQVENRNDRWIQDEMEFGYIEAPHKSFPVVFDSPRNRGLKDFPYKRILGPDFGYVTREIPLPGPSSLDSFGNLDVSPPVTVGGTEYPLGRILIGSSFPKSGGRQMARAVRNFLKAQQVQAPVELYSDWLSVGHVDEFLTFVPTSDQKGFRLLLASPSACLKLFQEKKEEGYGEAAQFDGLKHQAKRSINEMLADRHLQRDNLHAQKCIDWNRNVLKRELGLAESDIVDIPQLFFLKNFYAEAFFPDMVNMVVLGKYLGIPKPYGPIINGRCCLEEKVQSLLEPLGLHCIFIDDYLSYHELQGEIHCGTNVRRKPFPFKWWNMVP
Procedure: as §1

PAD2 = target: T3, PAD2 (Homo sapiens, UniProt Q9Y2J8); experiment: Inactivation kinetics, PAD2; conditions: for kinact/KI: a: single kobs determined, b: from a linear fit, other footnotes: from kinact and KI; for Fold PAD2 Selectivity: kinact/KI relative to least inhibited isozyme (1.0)
T3 construct: made in house
T3 sequence (Q9Y2J8 whole entry): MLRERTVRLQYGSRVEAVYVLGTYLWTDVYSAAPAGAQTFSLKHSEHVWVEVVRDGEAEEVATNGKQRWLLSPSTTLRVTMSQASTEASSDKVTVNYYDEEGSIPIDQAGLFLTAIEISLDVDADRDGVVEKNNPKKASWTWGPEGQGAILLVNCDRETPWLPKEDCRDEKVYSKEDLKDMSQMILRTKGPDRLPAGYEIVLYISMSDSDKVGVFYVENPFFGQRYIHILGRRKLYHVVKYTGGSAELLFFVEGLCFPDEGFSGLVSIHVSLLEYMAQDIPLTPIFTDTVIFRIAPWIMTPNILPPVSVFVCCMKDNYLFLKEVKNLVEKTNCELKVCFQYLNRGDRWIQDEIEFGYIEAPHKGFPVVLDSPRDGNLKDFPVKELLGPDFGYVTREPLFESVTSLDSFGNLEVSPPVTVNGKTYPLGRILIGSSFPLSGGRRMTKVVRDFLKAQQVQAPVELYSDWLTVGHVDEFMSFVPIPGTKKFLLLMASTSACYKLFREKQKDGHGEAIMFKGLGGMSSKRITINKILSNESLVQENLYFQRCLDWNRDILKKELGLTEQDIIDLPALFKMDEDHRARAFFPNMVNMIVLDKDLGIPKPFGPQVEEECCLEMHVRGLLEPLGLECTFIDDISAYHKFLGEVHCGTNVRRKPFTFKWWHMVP
Procedure: as §1

PAD3 = target: T4, PAD3 (Homo sapiens, UniProt Q9ULW8); experiment: Inactivation kinetics, PAD3; conditions: for kinact/KI: a: single kobs determined; for Fold PAD3 Selectivity: kinact/KI relative to least inhibited isozyme (1.0)
T4 construct: made in house
T4 sequence (Q9ULW8 1-664): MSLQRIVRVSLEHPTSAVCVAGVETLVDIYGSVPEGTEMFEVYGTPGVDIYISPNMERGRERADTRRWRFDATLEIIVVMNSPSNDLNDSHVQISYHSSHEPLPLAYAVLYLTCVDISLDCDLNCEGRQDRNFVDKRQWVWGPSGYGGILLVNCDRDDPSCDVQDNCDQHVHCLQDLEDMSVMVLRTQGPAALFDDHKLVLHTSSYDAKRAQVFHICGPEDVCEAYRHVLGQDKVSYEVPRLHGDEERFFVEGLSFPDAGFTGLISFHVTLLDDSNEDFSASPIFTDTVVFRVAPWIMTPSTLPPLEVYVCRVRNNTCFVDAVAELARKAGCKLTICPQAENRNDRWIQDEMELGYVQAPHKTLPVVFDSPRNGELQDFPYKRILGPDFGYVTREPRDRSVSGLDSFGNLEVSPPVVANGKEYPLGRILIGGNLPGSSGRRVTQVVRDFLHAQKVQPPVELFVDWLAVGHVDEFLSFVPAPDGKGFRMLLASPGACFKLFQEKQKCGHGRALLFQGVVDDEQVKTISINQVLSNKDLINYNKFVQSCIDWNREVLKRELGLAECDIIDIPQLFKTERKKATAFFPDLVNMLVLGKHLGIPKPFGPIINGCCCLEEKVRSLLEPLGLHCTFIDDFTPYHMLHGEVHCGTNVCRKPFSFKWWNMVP
Procedure: as §1

Row | Compound | kinact/KI (PAD4) [M⁻¹ s⁻¹] | Fold PAD4 Selectivity (PAD4) [fold] | kinact/KI (PAD1) [M⁻¹ s⁻¹] | Fold PAD1 Selectivity (PAD1) [fold] | Ki (PAD2; PAD2, table footnote) [µM] | kinact (PAD2; PAD2, table footnote) [s⁻¹] | kinact/KI (PAD2) [M⁻¹ s⁻¹] | Fold PAD2 Selectivity (PAD2) [fold] | kinact/KI (PAD3) [M⁻¹ s⁻¹] | Fold PAD3 Selectivity (PAD3) [fold]
1 | COc1cccc2c1nc([C@H](CCCNC(=N)CCl)NC(=O)c1cccc3c1C(=O)N(C)C3)n2C [8b′] | 106 | 1.0 | 719 | 6.8 |  |  | 1160 | 11 | 228 | 2.2
2 | N=C(CF)NCCC[C@H](NC(=O)c1ccc(-c2ccccc2)cc1)c1nc2ccccc2[nH]1 [Compound 5e, N1-[1,4′-Phenyl]benzol-N5-(2-fluoro-1-iminoethyl)-1-(1H-benzo[d]imidazol-2-yl)-L-ornithine] | 62.5 | 4.2 | 15 | 1.0 |  |  | 20 | 1.3 | 56.7 | 3.8
3 | Cn1c([C@H](CCCNC(=N)CF)NC(=O)c2ccc(-c3ccccc3)cc2)nc2ccccc21 [Compound 5g, N1-[1,4′-Phenyl]benzoyl-N5-(2-fluoro-1-iminoethyl)-1-(1-methyl-benzo[d]imidazol-2-yl)-L-ornithine] | 7.5 | 1.0 | 21.3 | 2.8 |  |  | 13.7 | 1.8 | 26.7 | 3.6
4 | CCn1c([C@H](CCCNC(=N)CF)NC(=O)c2ccc(-c3ccccc3)cc2)nc2ccccc21 [Compound 5i, N1-[1,4′-Phenyl]benzoyl-N5-(2-fluoro-1-iminoethyl)-1-(1-ethyl-benzo[d]imidazol-2-yl)-L-omithine] | 0.5 | 1.0 | 12.7 | 25 |  |  | 19.3 | 39 | 30 | 60
5 | CC(C)n1c([C@H](CCCNC(=N)CF)NC(=O)c2ccc(-c3ccccc3)cc2)nc2ccccc21 [Compound 5k, N1-[1,4′-Phenyl]benzoyl-N5-(2-fluoro-1-iminoethyl)-1-(1-isopropyl-benzo[d]imidazol-2-yl)-L-ornithine] | 0.333 | 1.0 | 0.333 | 1.0 |  |  | 11.3 | 34 | 28.3 | 85
6 | CC(C)n1c([C@H](CCCNC(=N)CCl)NC(=O)c2ccc(-c3ccccc3)cc2)nc2ccccc21 [Compound 5l, N1-[1,4′-Phenyl]benzoyl-N5-(2-chloro-1-iminoethyl)-1-(1-isopropyl-benzo[d]imidazol-2-yl)-L-ornithine] | 15.8 | 1.0 | 20.3 | 1.3 |  |  | 24.8 | 1.6 | 192 | 12
7 | COc1cccc2c1nc([C@H](CCCNC(=N)CF)NC(=O)c1ccc(-c3ccccc3)cc1)n2C [Compound 5m, N1-[1,4′-Phenyl]benzoyl-N5-(2-fluoro-1-iminoethyl)-1-(4-methoxy-1-methyl-benzo[d]imidazol-2-yl)-L-omithine] | 13.2 | 1.0 | 31.2 | 2.4 |  |  | 132 | 10 | 48.3 | 3.7
8 | COc1cccc2c1nc([C@H](CCCNC(=N)CCl)NC(=O)c1ccc(-c3ccccc3)cc1)n2C [Compound 5n, N1-[1,4′-Phenyl]benzoyl-N5-(2-chloro-1-iminoethyl)-1-(4-methoxy-1-methyl-benzo[d]imidazol-2-yl)-L-ornithine] | 132 | 1.4 | 580 | 6.3 |  |  | 463 | 5.1 | 91.7 | 1.0

Second part, the compound after the results:

Row | kinact/KI (PAD4) [M⁻¹ s⁻¹] | Fold PAD4 Selectivity (PAD4) [fold] | kinact/KI (PAD1) [M⁻¹ s⁻¹] | Fold PAD1 Selectivity (PAD1) [fold] | Ki (PAD2; PAD2, table footnote) [µM] | kinact (PAD2; PAD2, table footnote) [s⁻¹] | kinact/KI (PAD2) [M⁻¹ s⁻¹] | Fold PAD2 Selectivity (PAD2) [fold] | kinact/KI (PAD3) [M⁻¹ s⁻¹] | Fold PAD3 Selectivity (PAD3) [fold] | Compound
9 | 38.3 | 1.1 | 996 | 30 | 12.8 | 0.0455 | 3540 | 106 | 33.5 | 1.0 | COc1cccc2c1nc([C@H](CCCNC(=N)CF)NC(=O)c1cccc3c1C(=O)N(C)C3)n2C [8a′]
10 | 142 | 18 | 75 | 9.5 |  |  | 7.92 | 1.0 | 15 | 1.9 | N=C(CF)NCCC[C@H](NC(=O)c1ccccc1)c1nc2ccccc2[nH]1 [Compound 5a, N1-benzoyl-N5-(2-fluoro-1-iminoethyl)-1-(1H-benzo[d]imidazol-2-yl)-L-ornithine]
11 | 254 | 31 | 132 | 16 |  |  | 8.33 | 1.0 | 163 | 20 | N=C(CCl)NCCC[C@H](NC(=O)c1ccccc1)c1nc2ccccc2[nH]1 [Compound 5b, N1-benzoyl-N5-(2-chloro-1-iminoethyl)-1-(1H-benzo[d]imidazol-2-yl)-L-ornithine]
12 | 108 | 8.3 | 25 | 1.9 |  |  | 13.1 | 1.0 | 46.7 | 3.6 | N=C(CF)NCCC[C@H](NC(=O)c1ccc2ccccc2c1)c1nc2ccccc2[nH]1 [Compound 5c]
13 | 167 | 3.6 | 46.7 | 1.0 |  |  | 71.2 | 1.5 | 165 | 3.5 | N=C(CCl)NCCC[C@H](NC(=O)c1ccc2ccccc2c1)c1nc2ccccc2[nH]1 [Compound 5d]
14 | 51.8 | 1.3 | 112 | 2.8 |  |  | 40.5 | 1.0 | 100 | 2.5 | Cn1c([C@H](CCCNC(=N)CCl)NC(=O)c2ccc(-c3ccccc3)cc2)nc2ccccc21 [Compound 5h, N1-[1,4′-Phenyl]benzol-N5-(2-chloro-1-iminoethyl)-1-(1-methyl-benzo[d]imidazol-2-yl)-L-ornithine]
15 | 69.2 | 1.0 | 84.3 | 1.2 |  |  | 80.8 | 1.2 | 284 | 4.1 | CCn1c([C@H](CCCNC(=N)CCl)NC(=O)c2ccc(-c3ccccc3)cc2)nc2ccccc21 [Compound 5j, N1-[1,4′-Phenyl]benzoyl-N5-(2-chloro-1-iminoethyl)-1-(1-ethyl-benzo[d]imidazol-2-yl)-L-ornithine]
